Source: the NIST ThermoML archive (doi:10.1016/j.fluid.2012.11.006)
Several values for one entry are separate records, joined by “and”; a condition that tells them apart may be missing. Equal values may be shown once. Numbers after ± are expanded uncertainties.

Assays:
[1] = molar enthalpy of transition or fusion; conditions: Crystal, DSC
[2] = Molar enthalpy of transition or fusion; conditions: Crystal; DSC
[3] = molar heat capacity at constant pressure; conditions: 101.33 kPa, Crystal, Flow calorimetry
[4] = molar enthalpy of vaporization or sublimation

O=C(O)c1cc(Br)ccc1Br [2,5-dibromobenzoic acid]
Conditions | vapor or sublimation pressure [kPa]
346.8 K, Crystal, Torsion effusion method | 4.7e-05 ± 2.1e-05
348.6 K, Crystal, Torsion effusion method | 5.7e-05 ± 2.2e-05
350 K, Crystal, Torsion effusion method | 7.6e-05 ± 2.3e-05
350.2 K, Crystal, Torsion effusion method | 7.6e-05 ± 2.3e-05
352.2 K, Crystal, Torsion effusion method | 9.5e-05 ± 2.3e-05
353 K, Crystal, Torsion effusion method | 0.000114 ± 2.5e-05
353.5 K, Crystal, Torsion effusion method | 0.000114 ± 2.5e-05
353.6 K, Crystal, Torsion effusion method | 0.000114 ± 2.5e-05
354.3 K, Crystal, Torsion effusion method | 0.000133 ± 2.8e-05
354.8 K, Crystal, Torsion effusion method | 0.000133 ± 3.1e-05
356.1 K, Crystal, Torsion effusion method | 0.000171 ± 3.1e-05
356.2 K, Crystal, Torsion effusion method | 0.000152 ± 3e-05
356.8 K, Crystal, Torsion effusion method | 0.000171 ± 3e-05
357.3 K, Crystal, Torsion effusion method | 0.000189 ± 3.8e-05
357.8 K, Crystal, Torsion effusion method | 0.000208 ± 3.8e-05
358.3 K, Crystal, Torsion effusion method | 0.000208 ± 2.9e-05
359.2 K, Crystal, Torsion effusion method | 0.000246 ± 3.1e-05
359.6 K, Crystal, Torsion effusion method | 0.000227 ± 3.7e-05
360.2 K, Crystal, Torsion effusion method | 0.000246 ± 3.6e-05
360.4 K, Crystal, Torsion effusion method | 0.000265 ± 3.3e-05
361.5 K, Crystal, Torsion effusion method | 0.000303 ± 5e-05
361.7 K, Crystal, Torsion effusion method | 0.000303 ± 4.9e-05
362.4 K, Crystal, Torsion effusion method | 0.00036 ± 4.4e-05
362.5 K, Crystal, Torsion effusion method | 0.000322 ± 4.2e-05
363 K, Crystal, Torsion effusion method | 0.000379 ± 7e-05
363.8 K, Crystal, Torsion effusion method | 0.000388 ± 5.5e-05
364.6 K, Crystal, Torsion effusion method | 0.000493 ± 4.4e-05
364.7 K, Crystal, Torsion effusion method | 0.000474 ± 4.5e-05
365.6 K, Crystal, Torsion effusion method | 0.000474 ± 6.7e-05
366.2 K, Crystal, Torsion effusion method | 0.000493 ± 5.5e-05
367.3 K, Crystal, Torsion effusion method | 0.000606 ± 0.0001
367.6 K, Crystal, Torsion effusion method | 0.000701 ± 0.0001
367.7 K, Crystal, Torsion effusion method | 0.000682 ± 0.0001
369.1 K, Crystal, Torsion effusion method | 0.000777 ± 7e-05
369.7 K, Crystal, Torsion effusion method | 0.000834 ± 0.0001
370.5 K, Crystal, Torsion effusion method | 0.000853 ± 0.00011
370.7 K, Crystal, Torsion effusion method | 0.000947 ± 0.00011
371.2 K, Crystal, Torsion effusion method | 0.001023 ± 0.00011
372.3 K, Crystal, Torsion effusion method | 0.001099 ± 9.4e-05
373 K, Crystal, Torsion effusion method | 0.001175 ± 0.00013
373.5 K, Crystal, Torsion effusion method | 0.001213 ± 0.00015
373.7 K, Crystal, Torsion effusion method | 0.00127 ± 0.00014
375.4 K, Crystal, Torsion effusion method | 0.001516 ± 0.00021
376.8 K, Crystal, Torsion effusion method | 0.001914 ± 0.00029
376.9 K, Crystal, Torsion effusion method | 0.001762 ± 0.00018
440.2 K, Liquid, non-isothermal thermogravimetric | 0.643 ± 0.11
440.5 K, Liquid, non-isothermal thermogravimetric | 0.663 ± 0.091
441.3 K, Liquid, non-isothermal thermogravimetric | 0.731 ± 0.094
442.1 K, Liquid, non-isothermal thermogravimetric | 0.732 ± 0.095
443.1 K, Liquid, isothermal thermogravimetric | 0.819 ± 0.06
444 K, Liquid, isothermal thermogravimetric | 0.821 ± 0.092
444.1 K, Liquid, isothermal thermogravimetric | 0.835 ± 0.09
444.1 K, Liquid, non-isothermal thermogravimetric | 0.844 ± 0.098
444.6 K, Liquid, non-isothermal thermogravimetric | 0.841 ± 0.092
444.8 K, Liquid, isothermal thermogravimetric | 0.822 ± 0.082
445.4 K, Liquid, non-isothermal thermogravimetric | 0.919 ± 0.092
446.3 K, Liquid, non-isothermal thermogravimetric | 0.924 ± 0.096
447 K, Liquid, isothermal thermogravimetric | 1.031 ± 0.087
448.1 K, Liquid, isothermal thermogravimetric | 1.01 ± 0.091
448.3 K, Liquid, isothermal thermogravimetric | 1.044 ± 0.089
448.3 K, Liquid, non-isothermal thermogravimetric | 1.04 ± 0.1
448.7 K, Liquid, isothermal thermogravimetric | 1.012 ± 0.089
448.8 K, Liquid, non-isothermal thermogravimetric | 1.066 ± 0.1
449.2 K, Liquid, non-isothermal thermogravimetric | 1.146 ± 0.1
450.1 K, Liquid, non-isothermal thermogravimetric | 1.151 ± 0.11
451.2 K, Liquid, isothermal thermogravimetric | 1.291 ± 0.11
452 K, Liquid, non-isothermal thermogravimetric | 1.302 ± 0.12
452.1 K, Liquid, isothermal thermogravimetric | 1.259 ± 0.11
452.3 K, Liquid, isothermal thermogravimetric | 1.306 ± 0.1
452.9 K, Liquid, isothermal thermogravimetric | 1.282 ± 0.1
452.9 K, Liquid, non-isothermal thermogravimetric | 1.335 ± 0.1
453.1 K, Liquid, non-isothermal thermogravimetric | 1.404 ± 0.099
454.2 K, Liquid, non-isothermal thermogravimetric | 1.429 ± 0.098
455.1 K, Liquid, isothermal thermogravimetric | 1.608 ± 0.11
456.1 K, Liquid, isothermal thermogravimetric | 1.617 ± 0.12
456.2 K, Liquid, isothermal thermogravimetric | 1.573 ± 0.11
456.3 K, Liquid, non-isothermal thermogravimetric | 1.578 ± 0.11
456.7 K, Liquid, non-isothermal thermogravimetric | 1.622 ± 0.11
456.8 K, Liquid, isothermal thermogravimetric | 1.602 ± 0.11
457.1 K, Liquid, non-isothermal thermogravimetric | 1.739 ± 0.12
458.2 K, Liquid, non-isothermal thermogravimetric | 1.752 ± 0.1
459.3 K, Liquid, isothermal thermogravimetric | 1.974 ± 0.1
460 K, Liquid, isothermal thermogravimetric | 1.91 ± 0.14
460.1 K, Liquid, non-isothermal thermogravimetric | 1.931 ± 0.14
460.3 K, Liquid, isothermal thermogravimetric | 1.994 ± 0.14
460.6 K, Liquid, non-isothermal thermogravimetric | 1.967 ± 0.12
461 K, Liquid, isothermal thermogravimetric | 1.945 ± 0.13
461.2 K, Liquid, non-isothermal thermogravimetric | 2.111 ± 0.14
462.1 K, Liquid, non-isothermal thermogravimetric | 2.123 ± 0.14
463.1 K, Liquid, isothermal thermogravimetric | 2.39 ± 0.14
464.1 K, Liquid, isothermal thermogravimetric | 2.401 ± 0.17
464.2 K, Liquid, non-isothermal thermogravimetric | 2.396 ± 0.17
464.3 K, Liquid, isothermal thermogravimetric | 2.319 ± 0.15
464.8 K, Liquid, isothermal thermogravimetric | 2.362 ± 0.14
464.8 K, Liquid, non-isothermal thermogravimetric | 2.456 ± 0.15
465.4 K, Liquid, non-isothermal thermogravimetric | 2.637 ± 0.14
466.2 K, Liquid, non-isothermal thermogravimetric | 2.643 ± 0.15
467 K, Liquid, isothermal thermogravimetric | 2.886 ± 0.19
467.1 K, Liquid, isothermal thermogravimetric | 2.776 ± 0.18
468.1 K, Liquid, non-isothermal thermogravimetric | 2.879 ± 0.15
468.2 K, Liquid, isothermal thermogravimetric | 2.931 ± 0.15
468.5 K, Liquid, non-isothermal thermogravimetric | 2.897 ± 0.14
468.7 K, Liquid, isothermal thermogravimetric | 2.855 ± 0.078

Conditions | Normal melting temperature [°C] | molar enthalpy of transition or fusion [kcal/mol] | molar heat capacity at constant pressure
Crystal, DTA | 155 ± 0.5 | – | –
[1], 298.15 K | – | 31.6 ± 1.55 | –
[1], 428 K | – | 30.7 ± 1.12 | –
[3], 288.2 K | – | – | 216 ± 0.9 J/K/mol and 215.9 ± 0.9 J/K/mol
[3], 290.2 K | – | – | 217.4 ± 1 J/K/mol and 217.6 ± 1 J/K/mol and 217.5 ± 1 J/K/mol
[3], 292.2 K | – | – | 219.4 ± 1 J/K/mol and 219.3 ± 1 J/K/mol
[3], 294.2 K | – | – | 220.4 ± 0.8 J/K/mol and 220.6 ± 0.8 J/K/mol and 220.5 ± 0.8 J/K/mol
[3], 296.2 K | – | – | 221.5 ± 0.8 J/K/mol and 221.4 ± 0.8 J/K/mol and 221.7 ± 0.8 J/K/mol
[3], 298.2 K | – | – | 222.9 ± 0.9 J/K/mol and 223 ± 0.9 J/K/mol and 223.1 ± 0.9 J/K/mol
[3], 300.2 K | – | – | 224.7 ± 0.9 J/K/mol and 224.8 ± 0.9 J/K/mol
[3], 302.2 K | – | – | 225.9 ± 0.8 J/K/mol and 225.6 ± 0.8 J/K/mol and 225.8 ± 0.8 J/K/mol
[3], 304.2 K | – | – | 227 ± 0.9 J/K/mol and 227.3 ± 0.9 J/K/mol and 227.1 ± 0.9 J/K/mol
[3], 306.2 K | – | – | 228.3 ± 0.9 J/K/mol and 228.4 ± 0.9 J/K/mol and 228.5 ± 0.9 J/K/mol
[3], 308.2 K | – | – | 229.8 ± 1 J/K/mol and 229.6 ± 1 J/K/mol
[3], 310.2 K | – | – | 231.7 ± 0.9 J/K/mol and 231.6 ± 0.9 J/K/mol and 231.5 ± 0.9 J/K/mol
[3], 312.2 K | – | – | 232.5 ± 0.8 J/K/mol and 232.4 ± 0.8 J/K/mol and 232.3 ± 0.8 J/K/mol
[3], 314.2 K | – | – | 234 ± 0.9 J/K/mol and 233.9 ± 0.9 J/K/mol and 234.1 ± 0.9 J/K/mol
[3], 316.2 K | – | – | 235.3 ± 0.9 J/K/mol and 235.2 ± 0.9 J/K/mol
[3], 318.2 K | – | – | 237 ± 0.9 J/K/mol and 236.8 ± 0.9 J/K/mol and 236.9 ± 0.9 J/K/mol
[3], 320.2 K | – | – | 238.4 ± 0.7 J/K/mol and 238.5 ± 0.7 J/K/mol and 238.3 ± 0.7 J/K/mol
[3], 322.2 K | – | – | 239.1 ± 0.8 J/K/mol and 239 ± 0.8 J/K/mol
[3], 324.2 K | – | – | 240.7 ± 1 J/K/mol and 240.5 ± 1 J/K/mol and 240.4 ± 1 J/K/mol
[3], 326.2 K | – | – | 242.4 ± 1 J/K/mol and 242.1 ± 0.9 J/K/mol and 242.3 ± 1 J/K/mol

Conditions | Molar enthalpy of transition or fusion [kcal/mol]
[2] | 8.77 ± 0.884

[4]
Conditions | molar enthalpy [kcal/mol]
298.15 K, Crystal, Torsion-effucion | 31.9 ± 0.478
428 K, Liquid, DSC | 22.2 ± 0.693
